# Data: PMC9599613 (Biomolecules, 2022)
# Where two headings read alike, the source gives them in different places.
# Legend:
# [1] = DPPH free radical scavenging assay
# Procedure: The antioxidant potentials of isolated compounds (phytosteroids 1 and 2) were determined following the DPPH standard assay. Initially, DPPH (24 mg) was dissolved in methanol (100 mL). Stock solutions of the test compounds were prepared in different dilutions (62.50–1000 μg/mL). From each dilution, 1 mL was mixed with 1 mL of the DPPH solution. The solution mixtures were incubated at room temperature for 0.5 h. Afterward, absorbance was recorded at 517 nm with a UV-visible spectrophotometer. Ascorbic acid was the standard drug, whereas the DPPH solution without the compound was negative control. The percent radical scavenging potential of the test compounds was calculated using the following formula: % DPPH activity=X−X1/X×100 where X = absorbance of the control, and X1 = absorbance of the test compound.
# [2] = ABTS free radical scavenging assay
# Procedure: The antioxidant potentials of isolated phytosteroids 1 and 2 were also determined using the ABTS (2,2′-azino-bis(3-ethylbenzothiazoline-6-sulfonic acid)) standard method. […] This created free radicals within the sample. Afterward, the addition of 50% methanol and the ABTS radical cation solution were adjusted to pH 7.4 by dilution with the phosphate buffer (pH 7.4). […] The positive control was ascorbic acid, and the assay was repeated in triplicate. The percent radical scavenging potential of the test compounds was calculated using the standard reported formula.
# [3] = target: COX-1 (Homo sapiens, UniProt P23219); assay: biochemical; conditions: read-out: % COX-1 Inhibition
# Procedure: (§1) The Cyclooxygenase enzymes (COX-1 and 2) inhibitory potential of our test compounds was determined according to the previously reported procedure. […] The enzyme solutions with a concentration of 0.7–0.8 μg/10 μL (COX-1) and 300 U/mL (COX-2) were prepared. To start the assay, for enzyme activation, 10 µL enzyme solution (kept in a cool temperature of 4 °C for 5 min) and cofactor containing hematin (50 µL, 1 mM), glutathione (0.9 mM) and TMPD in a Tris-buffer (0.1 M) with a pH 8.0 was added. After that, 60 µL of the enzyme solution was added to 20 µL of the test samples of various concentrations and incubated at room temperature for 5 to 10 min. Then, 20 µL of arachidonic acid (30 mM) was added to start the reaction. The mixture was then again incubated for 15 min at 37 °C, and absorbances were measured at 570 nm with UV-visible spectrophotometer. […] The % enzyme inhibitions were calculated by using the previously reported formula.
# [4] = target: T1, human recombinant 5-LOX (Homo sapiens, UniProt P09917); assay: biochemical; conditions: for inhibition at 62.5 µg/mL / inhibition at 125 µg/mL / inhibition at 250 µg/mL / inhibition at 500 µg/mL / inhibition at 1000 µg/mL: read-out: % 5-LOX Inhibition
# T1 sequence (P09917 1-674): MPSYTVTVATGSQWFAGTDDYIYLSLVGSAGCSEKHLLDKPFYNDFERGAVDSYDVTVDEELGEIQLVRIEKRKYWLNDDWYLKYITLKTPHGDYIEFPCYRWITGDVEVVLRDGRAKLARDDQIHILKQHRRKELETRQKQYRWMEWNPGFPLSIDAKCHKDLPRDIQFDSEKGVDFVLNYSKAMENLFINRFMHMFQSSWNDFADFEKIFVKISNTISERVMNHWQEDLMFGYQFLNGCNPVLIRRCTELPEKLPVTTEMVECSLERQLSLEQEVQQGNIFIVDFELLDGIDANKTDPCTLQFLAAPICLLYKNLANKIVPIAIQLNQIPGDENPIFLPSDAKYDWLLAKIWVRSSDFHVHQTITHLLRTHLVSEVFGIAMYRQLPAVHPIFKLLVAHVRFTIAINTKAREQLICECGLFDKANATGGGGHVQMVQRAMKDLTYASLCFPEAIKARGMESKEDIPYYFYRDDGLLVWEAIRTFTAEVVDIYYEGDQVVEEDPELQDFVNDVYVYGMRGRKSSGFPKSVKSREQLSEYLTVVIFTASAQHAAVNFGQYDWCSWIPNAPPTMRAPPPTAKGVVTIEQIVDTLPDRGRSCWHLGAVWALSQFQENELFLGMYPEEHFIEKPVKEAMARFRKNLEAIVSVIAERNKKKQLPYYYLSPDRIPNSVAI
# Procedure: The lipoxygenase assay on our test compounds was performed by utilizing human recombinant 5-LOX [65]. […] The enzyme solution with a concentration of 10,000 U/mL was prepared, whereas 80 mM linoleic acid solution was used as a substrate. Solutions were prepared in a phosphate buffer (50 mM) with a pH of 6.3, which was also utilized as the blank. To start, various concentrations of our test samples were dissolved in 0.25 mL of the buffer, to which 0.25 mL enzyme solution was added and incubated at 25 °C for 5 min. Afterward, the substrate solution (0.1 mL) was added to the mixture and shaken well. […] In this assay, the standard drug was montelukast, and using the following formula, the % inhibitions were calculated: % enzyme inhibition=X−X1/X×100 where X = absorbance of the negative control (with no test sample), and X1 = absorbance of the test compound.
# [5] = target: T2, acetylcholinesterase (AChE) (Electrophorus electricus, UniProt O42275); assay: Anticholinesterase assay (Ellman's), AChE inhibition; format: biochemical
# T2 construct: acetylcholinesterase (AChE, obtained from Electrophorus electricus); from tissue
# Procedure: (§2) This enzyme method relied on the hydrolytic of acetyl cholinethioiodide (ATChI) by acetylcholinesterase and butyrylthiocholine iodide (BTchI) by butyrylcholinesterase. As a result of this breakdown, 5-thio-2-nitrobenoate anions formed. […] The absorption was measured with a spectrophotometer, as per the protocols. […] An amount of 0.1 M phosphate buffer (8.0 ± 0.1 pH) solution was prepared, whose final pH was adjusted by using the KOH solution.
# (§3) In this assay, 50 µL enzyme solution and 50 µL DTNB reagent were added to 1 mL test samples in a cuvette and then incubated at 30 °C for 15 min. Afterward, a 50 µL substrate solution was added to the mixture.
# [6] = target: T3, COX-2 (Homo sapiens, UniProt P35354); assay: biochemical
# T3 sequence (P35354 18-604): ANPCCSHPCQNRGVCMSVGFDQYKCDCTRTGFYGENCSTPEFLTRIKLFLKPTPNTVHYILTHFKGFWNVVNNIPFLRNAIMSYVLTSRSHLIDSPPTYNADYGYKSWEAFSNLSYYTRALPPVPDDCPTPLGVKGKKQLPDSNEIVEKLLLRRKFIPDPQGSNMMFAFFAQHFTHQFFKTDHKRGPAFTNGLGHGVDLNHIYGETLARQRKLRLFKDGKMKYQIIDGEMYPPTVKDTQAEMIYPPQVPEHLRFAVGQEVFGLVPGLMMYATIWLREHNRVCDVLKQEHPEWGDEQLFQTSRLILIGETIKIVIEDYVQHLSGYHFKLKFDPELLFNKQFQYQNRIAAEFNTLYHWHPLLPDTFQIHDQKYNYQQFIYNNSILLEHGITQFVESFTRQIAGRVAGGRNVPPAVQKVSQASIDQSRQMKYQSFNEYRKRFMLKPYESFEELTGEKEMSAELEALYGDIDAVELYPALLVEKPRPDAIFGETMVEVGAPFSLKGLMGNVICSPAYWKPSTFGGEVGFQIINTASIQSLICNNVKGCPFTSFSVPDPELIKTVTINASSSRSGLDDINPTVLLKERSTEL
# Procedure: as §1
# [7] = target: T4, butyrylcholinesterase (BChE) (Equus caballus, UniProt P81908); assay: Anticholinesterase assay (Ellman's), BChE inhibition; format: biochemical, equine
# T4 construct: butyrylcholinesterase (BChE, obtained from equine serum); from tissue; host or cells: equine serum
# Procedure: as §2, §3
# [8] = 1000 μg/mL, listed as compound 1
# Chain of COX-1 (P23219 24-599): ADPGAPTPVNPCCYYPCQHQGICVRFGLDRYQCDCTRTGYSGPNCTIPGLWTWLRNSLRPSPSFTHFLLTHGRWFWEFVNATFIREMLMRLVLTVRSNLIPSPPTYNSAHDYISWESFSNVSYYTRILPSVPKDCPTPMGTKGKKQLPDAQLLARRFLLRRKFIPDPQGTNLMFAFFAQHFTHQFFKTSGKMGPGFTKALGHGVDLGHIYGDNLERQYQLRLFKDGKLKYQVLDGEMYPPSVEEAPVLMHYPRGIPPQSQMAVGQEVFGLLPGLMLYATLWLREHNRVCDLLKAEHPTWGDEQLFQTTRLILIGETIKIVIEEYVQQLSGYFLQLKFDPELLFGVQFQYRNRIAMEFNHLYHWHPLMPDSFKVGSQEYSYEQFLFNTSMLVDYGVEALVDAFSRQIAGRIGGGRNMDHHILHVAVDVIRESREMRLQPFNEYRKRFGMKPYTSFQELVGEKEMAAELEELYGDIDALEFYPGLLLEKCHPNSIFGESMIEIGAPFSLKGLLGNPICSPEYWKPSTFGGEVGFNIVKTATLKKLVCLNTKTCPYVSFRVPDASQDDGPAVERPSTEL
# T2 sequence (O42275 24-633): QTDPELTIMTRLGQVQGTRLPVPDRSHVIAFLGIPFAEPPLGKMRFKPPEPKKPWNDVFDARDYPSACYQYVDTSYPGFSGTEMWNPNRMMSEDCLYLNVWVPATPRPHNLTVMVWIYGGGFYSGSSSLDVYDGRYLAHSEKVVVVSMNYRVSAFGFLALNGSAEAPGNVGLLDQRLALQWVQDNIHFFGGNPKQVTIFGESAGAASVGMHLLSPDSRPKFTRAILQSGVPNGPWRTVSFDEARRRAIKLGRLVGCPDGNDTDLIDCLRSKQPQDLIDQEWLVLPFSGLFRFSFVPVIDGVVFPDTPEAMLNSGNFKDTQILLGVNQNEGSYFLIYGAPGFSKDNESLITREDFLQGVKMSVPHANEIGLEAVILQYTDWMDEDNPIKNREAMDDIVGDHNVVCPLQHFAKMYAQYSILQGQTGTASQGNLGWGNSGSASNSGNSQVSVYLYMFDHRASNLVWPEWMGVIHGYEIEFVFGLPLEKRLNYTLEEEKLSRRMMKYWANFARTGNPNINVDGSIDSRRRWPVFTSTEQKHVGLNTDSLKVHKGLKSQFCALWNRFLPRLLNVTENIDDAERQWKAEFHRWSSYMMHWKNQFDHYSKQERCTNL
# T4 sequence (P81908 whole entry): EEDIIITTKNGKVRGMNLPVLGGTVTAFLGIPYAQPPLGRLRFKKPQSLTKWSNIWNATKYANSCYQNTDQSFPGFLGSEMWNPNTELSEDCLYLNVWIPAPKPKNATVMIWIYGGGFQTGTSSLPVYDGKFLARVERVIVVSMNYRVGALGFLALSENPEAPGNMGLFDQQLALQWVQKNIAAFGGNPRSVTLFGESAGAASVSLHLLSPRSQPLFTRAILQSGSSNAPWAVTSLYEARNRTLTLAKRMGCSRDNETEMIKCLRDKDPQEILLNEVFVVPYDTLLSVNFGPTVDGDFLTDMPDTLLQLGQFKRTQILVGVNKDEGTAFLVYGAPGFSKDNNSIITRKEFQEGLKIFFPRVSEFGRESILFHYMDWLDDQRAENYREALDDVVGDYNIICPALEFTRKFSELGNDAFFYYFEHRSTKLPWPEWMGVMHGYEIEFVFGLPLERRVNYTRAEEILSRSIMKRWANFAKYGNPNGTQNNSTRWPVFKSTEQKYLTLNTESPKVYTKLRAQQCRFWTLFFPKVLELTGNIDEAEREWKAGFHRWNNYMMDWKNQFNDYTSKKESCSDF
structure (smiles),measurement,setting,value
"O=C1O[C@H]([C@@H](O)CO)C(O)=C1O [AA, Ascorbic acid, reference compound]",DPPH IC50,[1],11.47 µg/mL
same,Percent DPPH Activity (mean ± SEM),[1]; 62.5 μg/mL,61.30 ± 0.52%
same,Percent DPPH Activity (mean ± SEM),[1]; 125 μg/mL,66.37 ± 0.58%
same,Percent DPPH Activity (mean ± SEM),[1]; 250 μg/mL,72.29 ± 0.43%
same,Percent DPPH Activity (mean ± SEM),[1]; 500 μg/mL,78.58 ± 0.56%
same,Percent DPPH Activity (mean ± SEM),[1]; 1000 μg/mL,84.39 ± 0.60%
same,ABTS IC50,[2],21.72 µg/mL
same,Percent ABTS Activity (mean ± SEM),[2]; 62.5 μg/mL,53.00 ± 0.57%
same,Percent ABTS Activity (mean ± SEM),[2]; 125 μg/mL,62.50 ± 0.44%
same,Percent ABTS Activity (mean ± SEM),[2]; 250 μg/mL,66.33 ± 0.33%
same,Percent ABTS Activity (mean ± SEM),[2]; 500 μg/mL,74.66 ± 1.20%
same,Percent ABTS Activity (mean ± SEM),[2]; 1000 μg/mL,79.00 ± 0.16%
"CC(=O)Oc1ccccc1C(=O)O [Aspirin, aspirin, reference compound]",inhibition at 62.5 µg/mL,[3]; 62.50 μg/mL,51.68 ± 0.22%
same,inhibition at 125 µg/mL,[3]; 125 μg/mL,59.84 ± 0.32%
same,inhibition at 250 µg/mL,[3]; 250 μg/mL,66.43 ± 0.29%
same,inhibition at 500 µg/mL,[3]; 500 μg/mL,71.88 ± 0.2%
same,inhibition at 1000 µg/mL,[3]; 1000 μg/mL,75.89 ± 0.2%
"CC(C)C/C=C\C(C)C1CCC2C3CCC4=CC(=O)CCC4(C)C3CCC12C (stereo not drawn) [Compound 1, (Z)-10,13-dimethyl-17-(6-methylhept-3-en-2-yl)-1,2,6,7,8,9,10,11,12,13,14,15,16,17-tetradecahydro-3H-cyclopenta[a]phenanthren-3-one]",IC50,[4],19.3 µM
same,inhibition at 62.5 µg/mL,[4],65.68 ± 0.64%
same,inhibition at 125 µg/mL,[4],71.42 ± 0.46%
same,inhibition at 250 µg/mL,[4],76.53 ± 0.41%
same,inhibition at 500 µg/mL,[4],82.45 ± 0.55%
same,inhibition at 1000 µg/mL,[4],87.63 ± 0.64%
same,AChE inhibition (%),[5]; 62.5 μg/mL,55.56 ± 0.52 %
same,AChE inhibition (%),[5]; 125 μg/mL,64.78 ± 0.60 %
same,AChE inhibition (%),[5]; 250 μg/mL,71.46 ± 0.53 %
same,AChE inhibition (%),[5]; 500 μg/mL,77.68 ± 0.63 %
same,AChE inhibition (%),[5]; 1000 μg/mL,85.72 ± 0.79 ^ns %
same,IC50,[5]; read-out: AChE IC50 (converted),53 µM
same,inhibition at 62.5 µg/mL,[3],22.4 ± 0.49%
same,inhibition at 125 µg/mL,[3],40.6 ± 0.84%
same,inhibition at 250 µg/mL,[3],43.5 ± 0.46%
same,inhibition at 500 µg/mL,[3],59.56 ± 0.45%
same,inhibition at 1000 µg/mL,[3],66.29 ± 0.43%
same,IC50,[6],28 µM
same,inhibition at 62.5 µg/mL,[6]; read-out: % COX-2 Inhibition,61.1 ± 0.7%
same,inhibition at 125 µg/mL,[6]; read-out: % COX-2 Inhibition,66.4 ± 0.7%
same,inhibition at 250 µg/mL,[6]; read-out: % COX-2 Inhibition,72.7 ± 0.51%
same,inhibition at 500 µg/mL,[6]; read-out: % COX-2 Inhibition,78.83 ± 0.73%
same,inhibition at 1000 µg/mL,[6]; read-out: % COX-2 Inhibition,83.13 ± 0.8%
same,DPPH IC50,[1],314.78 µg/mL
same,Percent DPPH Activity (mean ± SEM),[1]; 62.5 μg/mL,31.53 ± 0.71 %
same,Percent DPPH Activity (mean ± SEM),[1]; 125 μg/mL,37.51 ± 0.77 %
same,Percent DPPH Activity (mean ± SEM),[1]; 250 μg/mL,45.75 ± 0.58 %
same,Percent DPPH Activity (mean ± SEM),[1]; 500 μg/mL,56.45 ± 0.49 %
same,Percent DPPH Activity (mean ± SEM),[1]; 1000 μg/mL,64.79 ± 0.62 %
same,Percent DPPH Activity (mean ± SEM),[1]; [8],64.79 ± 0.62%
same,IC50,[7],71.5 µM
same,Percent BChE (mean ± SEM),[7]; 62.5 μg/mL,59.81 ± 0.65 %
same,Percent BChE (mean ± SEM),[7]; 125 μg/mL,66.65 ± 0.78 %
same,Percent BChE (mean ± SEM),[7]; 250 μg/mL,75.70 ± 0.62 %
same,Percent BChE (mean ± SEM),[7]; 500 μg/mL,80.76 ± 0.63 %
same,Percent BChE (mean ± SEM),[7]; 1000 μg/mL,84.83 ± 0.62 %
same,ABTS IC50,[2],369.86 µg/mL
same,Percent ABTS Activity (mean ± SEM),[2]; 62.5 μg/mL,29.67 ± 0.61 %
same,Percent ABTS Activity (mean ± SEM),[2]; 125 μg/mL,35.69 ± 0.77 %
same,Percent ABTS Activity (mean ± SEM),[2]; 250 μg/mL,43.83 ± 0.56 %
same,Percent ABTS Activity (mean ± SEM),[2]; 500 μg/mL,54.60 ± 0.80 %
same,Percent ABTS Activity (mean ± SEM),[2]; 1000 μg/mL,62.61 ± 0.77 %
same,Percent ABTS Activity (mean ± SEM),[2]; [8],62.61 ± 0.77%
"CC(C)(O)c1ccccc1CC[C@@H](SCC1(CC(=O)O)CC1)c1cccc(/C=C/c2ccc3ccc(Cl)cc3n2)c1 [Montelukast, montelukast, reference compound]",IC50,[4],7.68 µM
same,inhibition at 62.5 µg/mL,[4]; 62.50 μg/mL,74.17 ± 0.72%
same,inhibition at 125 µg/mL,[4]; 125 μg/mL,79.6 ± 0.9%
same,inhibition at 250 µg/mL,[4]; 250 μg/mL,85.5 ± 0.4%
same,inhibition at 500 µg/mL,[4]; 500 μg/mL,89.4 ± 1.65%
same,inhibition at 1000 µg/mL,[4]; 1000 μg/mL,93.55 ± 0.4%
